Where “and” joins values, the source holds several entries; their conditions need not be identical. Equal values may be shown once.
Legend:
Conditions in all cases: mouse, in vivo
[1] = system: B. anthracis spores; set-up: species or system mouse (Balb/c)
[2] = system: B. anthracis; set-up: species or system mouse (Balb/c)
[3] = system: E. coli strain TVDL-rat; set-up: species or system mice

In the case of “poly-(1,6)-β-D-glucopyranosyl (1,3)β-D-glucopyranose [PGG]”, the mean survival time [1] is reported as 10.2 days and 11.5 days, the “number of survivors out of 22 mice” value [1] is reported as 19 and the percent survivors [1] is reported as 86.36%. For the same substance, the “survival, data pooled from the two experiments” value [1] was 10.86 days, the bacteria-free animals [2] was 86.4% and the “bacterial load in lung of surviving animals” value [2] was 2.6×10^5 CFU/g lung. The survival rate [3] was 90% and 75% and 70%.

— US8865679B2 (priority 2001, dated 2014)
